From patent publication US4452813A, “Sulfonate derivatives, process for preparing same and antilipemic compositions containing the derivative” (Taiho Pharmaceutical Company Limited, priority 1981, dated 1984)

What was measured:
[1] = molecular target: esterase (purified microsome fraction of the liver of a rat); test: Esterase inhibiting activity (hydrolysis of methyl butyrate); type: biochemical; conditions: methyl butyrate substrate, pH 8.0, 37° C., 60 minutes
Protocol: 1. Esterase Inhibiting Activity
A 10 micromole quantity of methyl butyrate in a 50% ethanol solution is added as a substrate to a specified amount of buffer solution (pH 8.0) containing 0.1 mole of trishydrochloric acid. To the mixture is further added a 50% ethanol solution of the compound of the invention, immediately followed by addition of an esterase solution prepared from a purified microsome fraction of the liver of a rat (adjusted to hydrolyze 9 micromoles of methyl butyrate at 37° C. in one hour). The mixture is reacted at 37° C. for 60 minutes.
After the reaction, alkaline hydroxylamine is added to the mixture to form a hydroxamic acid derivative of methyl butyrate, and a ferric salt is added to the derivative. The resulting red color is colorimetrically determined (at a wavelength of 540 nm) to determine the amount of remaining methyl butyrate. The esterase inhibiting ratios of the present compound at least at three concentrations are plotted as ordinate, and the logarithms of the concentrations as abscissa to obtain a line, which gives the 50% inhibition concentration (IC50).

[2] = Acute toxicity, oral, one week; conditions: rat, in vivo, 5% gum arabic suspension
Source text: Six-week-old male Wister rats weighing 180 to 200 g are used, 5 rats in each group. The present compound is suspended in a 5% aqueous solution of gum arabic, and the suspension is orally given to the rats. For one week after the start of the test, the rats are checked evey day for general toxicity symptoms, body weight and death to determine the LD50 value.

[3] = molecular target: Chymotripsin (Bos taurus, UniProt P00766); test: Chymotripsin inhibiting activity (hydrolysis of ATEE); type: biochemical; conditions: 0.5 h; 1 × 10^-4 mol; 20 min preincubation, ATEE 30 min, 37° C., pH 8.0
Protocol: 2. Chymotripsin Inhibiting Activity
Chymotripsin (0.1 unit) serving as an enzyme solution is added to a specified quantity of buffer solution (pH 8.0) containing 0.1 mole of trishydrochloric acid. To the mixture is further added a 50% ethanol solution of the compound of the invention. The mixture is reacted at 37° C. for 20 minutes.
On completion of the reaction, 10 micromoles of […] (ATEE) serving as a substrate is added to the mixture, and the resulting mixture is reacted at 37° C. for 30 minutes.
After the completion of the reaction, the amount of remaining ATEE is determined by the same hydroxamic acid method as above. The percent chymotripsin inhibition is given by [formula] wherein A is the amount of hydrolzed esters in the reaction system not containing the compound of the invention, and B is the amount of hydrolyzed esters in the reaction system containing the present compound.

[4] = system: triglycerides content in the plasma; test: Antilipemic effect: inhibition of olive oil-induced hyperlipidemia, plasma triglycerides; type: in vivo, male Wister rats; conditions: Rattus norvegicus, 100 mg compound in 5 ml olive oil, 5 ml/kg oral, 2 hours, read-out: Antilipemic effect IGI (%) (percent hyperlipidemia inhibition, triglycerides)
Protocol: Seven-week-old male Wister rats weighing 200 to 220 g are used, 5 rats in each group.
The compound of the invention (100 mg) is dissolved in 5 ml of olive oil. The olive oil containing the compound is orally given to the rat with a probe at a dose of 5 ml/kg. Two hours thereafter, 6 ml of whole blood is withdrawn from the descending aorta of the rat under ether anesthesia with a syringe containing heparin. The blood is centrifuged at 5° C. and 3000 r.p.m. to obtain the plasma. The plasma collected is used for determining the triglycerides content, using a triglycerides measuring kit (trade mark "Triglycerides-B Test Wako," product of Wako Junyaku Co., Ltd., Japan). Olive oil containing no compound is similarly given to a control group, while no treatment is conducted for a normal group. The triglycerides content in the plasma is also determined for these groups in the same manner as is the case with the test groups.
The percent hyperlipidemia inhibition achieved by the present compound is given by [formula] in which A is the triglycerides content of the control group, B is the triglycerides content of the normal group, and C is the triglycerides content of the group to which the present compound is given.

CC(CC1CCCCC1)C(=O)COS(=O)(=O)c1ccccc1 (centres unmarked) [Compound 1, 1-benzenesulfonyloxy-4-cyclohexyl-3-methyl-2-butanone]
IC50 [1]: 0.35 µM | LD50 at 168 h [2]: > 2000 mg/kg | inhibition at 100 µM [3]: 100% | inhibition in vivo at 100 mg/kg [4]: 60%

Cc1ccc(S(=O)(=O)OCC(=O)C(C)CC2CCCCC2)cc1 (centres unmarked) [Compound 2]
IC50 [1]: 7.8 µM | LD50 at 168 h [2]: > 2000 mg/kg | inhibition at 100 µM [3]: 90% | inhibition in vivo at 100 mg/kg [4]: 50%

COc1ccc(S(=O)(=O)OCC(=O)C(C)CC2CCCCC2)cc1 (centres unmarked) [Compound 3]
IC50 [1]: 4 µM | LD50 at 168 h [2]: > 3000 mg/kg | inhibition at 100 µM [3]: 93% | inhibition in vivo at 100 mg/kg [4]: 63%

CCOc1ccc(S(=O)(=O)OCC(=O)C(C)CC2CCCCC2)cc1 (centres unmarked) [Compound 4]
IC50 [1]: 23 µM | LD50 at 168 h [2]: > 3000 mg/kg | inhibition at 100 µM [3]: 78% | inhibition in vivo at 100 mg/kg [4]: 52%

CCC(CC1CCCCC1)C(=O)COS(=O)(=O)c1ccccc1 (centres unmarked) [Compound 5, 1-benzenesulfonyloxy-4-cyclohexyl-3-ethyl-2-butanone]
IC50 [1]: 4.7 µM | LD50 at 168 h [2]: > 2000 mg/kg | inhibition at 100 µM [3]: 12% | inhibition in vivo at 100 mg/kg [4]: 80%

CCC(CC1CCCCC1)C(=O)COS(=O)(=O)c1ccc(OC)cc1 (centres unmarked) [Compound 6]
LD50 at 168 h [2]: > 3000 mg/kg | inhibition in vivo at 100 mg/kg [4]: 52%

CCOc1ccc(S(=O)(=O)OCC(=O)C(CC)CC2CCCCC2)cc1 (centres unmarked) [Compound 7]
IC50 [1]: 200 µM | LD50 at 168 h [2]: > 3000 mg/kg | inhibition at 100 µM [3]: 13% | inhibition in vivo at 100 mg/kg [4]: 71%

CC(CC(=O)COS(=O)(=O)c1ccccc1)C1CCCCC1 (centres unmarked) [Compound 8]
IC50 [1]: 0.8 µM | LD50 at 168 h [2]: > 3000 mg/kg | inhibition at 100 µM [3]: 31% | inhibition in vivo at 100 mg/kg [4]: 73%

Cc1ccc(S(=O)(=O)OCC(=O)CC(C)C2CCCCC2)cc1 (centres unmarked) [Compound 9]
IC50 [1]: 4.2 µM | LD50 at 168 h [2]: > 2000 mg/kg | inhibition at 100 µM [3]: 31% | inhibition in vivo at 100 mg/kg [4]: 70%

COc1ccc(S(=O)(=O)OCC(=O)CC(C)C2CCCCC2)cc1 (centres unmarked) [Compound 10, 4-cyclohexyl-1-(4-methoxybenzenesulfonyloxy)2-pentanone]
IC50 [1]: 3.5 µM | LD50 at 168 h [2]: > 3000 mg/kg | inhibition at 100 µM [3]: 22% | inhibition in vivo at 100 mg/kg [4]: 46%

CCOc1ccc(S(=O)(=O)OCC(=O)CC(C)C2CCCCC2)cc1 (centres unmarked) [Compound 11]
IC50 [1]: 7.2 µM | LD50 at 168 h [2]: > 3000 mg/kg | inhibition at 100 µM [3]: 19% | inhibition in vivo at 100 mg/kg [4]: 60%

Cc1cc(C)c(S(=O)(=O)OCC(=O)CC(C)C2CCCCC2)c(C)c1 (centres unmarked) [Compound 12]
IC50 [1]: 1 µM | LD50 at 168 h [2]: > 3000 mg/kg | inhibition at 100 µM [3]: 24% | inhibition in vivo at 100 mg/kg [4]: 39%

CCC(C(=O)COS(=O)(=O)c1ccc(C)cc1)C1CCC(C)CC1 (centres unmarked) [Compound 13]
IC50 [1]: 20 µM | LD50 at 168 h [2]: > 2000 mg/kg | inhibition at 100 µM [3]: 50%

CCOc1ccc(S(=O)(=O)OCC(=O)C(CC)C2CCC(C)CC2)cc1 (centres unmarked) [Compound 14]
IC50 [1]: 40 µM | LD50 at 168 h [2]: > 3000 mg/kg | inhibition at 100 µM [3]: 40% | inhibition in vivo at 100 mg/kg [4]: 81%

Cc1ccc(S(=O)(=O)OCC(=O)CC2CCC(C)CC2)cc1 (centres unmarked) [Compound 15, 1-(4-methylcyclohexyl)-3-(p-toluenesulfonyloxy)-2-propanone]
IC50 [1]: 1.4 µM | LD50 at 168 h [2]: > 2000 mg/kg | inhibition at 100 µM [3]: 94% | inhibition in vivo at 100 mg/kg [4]: 85%

CCOc1ccc(S(=O)(=O)OCC(=O)CC2CCC(C)CC2)cc1 (centres unmarked) [Compound 16]
IC50 [1]: 5 µM | LD50 at 168 h [2]: > 3000 mg/kg | inhibition at 100 µM [3]: 81% | inhibition in vivo at 100 mg/kg [4]: 11%

CC1CCCCC1CC(=O)COS(=O)(=O)c1ccccc1 (centres unmarked) [Compound 17, 1-benzenesulfonyloxy-3-(2-methylcyclohexyl)-2-propanone]
IC50 [1]: 0.032 µM | LD50 at 168 h [2]: > 2000 mg/kg | inhibition at 100 µM [3]: 97% | inhibition in vivo at 100 mg/kg [4]: 72%
